Experimental data as given in patent publication US11576897B2, “Therapeutic agent for non-motor symptoms associated with Parkinson's disease” (priority 2017, dated 2023).
Where two headings read alike, the source gives them in different places.

What was measured:
human 5-HT2A receptor = human 5-HT2A receptor (Homo sapiens (Human), UniProt P28223); experiment: biochemical; type: binding; conditions: read-out: 5-HT2A receptor binding inhibition constant Ki
[1] = target: human serotonin transporter (SERT) (Homo sapiens (Human), UniProt P31645); experiment: Human serotonin transporter (SERT) binding test; conditions: [3H]-citalopram, h-SERT/CHO cell membrane; read-out: h-SERT binding inhibition constant Ki
[2] = [3H]-ketanserin, human 5-HT2A receptor-expressed CHO cell membrane

Structure (SMILES): CNCc1cc(OCc2ccccc2)n(Cc2ccccc2)n1 [Example 1, 1-[l-benzyl-5-(benzyloxy)-1H-pyrazol-3-yl]-N-methylmethanamine]
- Ki (human 5-HT2A receptor; [2]): 5.5 nM

Structure (SMILES): CNCc1cc(OCc2ccccc2)n(CC2CCCCC2)n1 [Example 5, 1-[5-(benzyloxy)-1-(cyclohexylmethyl)-1H-pyrazol-3-yl]-N-methylmethanamine]
- Ki (human 5-HT2A receptor): 5.9 nM

Structure (SMILES): CNCc1cc(OCc2ccccc2F)n(CC2CCCCC2)n1 [Example 20, 1-{1-(cyclohexylmethyl)-5-[(2-fluorobenzyl)oxy]-1H-pyrazol-3-yl}-N-methylmethanamine]
- Ki (human 5-HT2A receptor; [2]): 0.65 nM
- Ki [1]: 1.6 nM

Structure (SMILES): CNCc1cc(OCc2ccc(F)cc2Cl)n(CC2CCCCC2)n1 [Example 30, 1-{5-[(2-chloro-4-fluorobenzyl)oxy]-1-(cyclohexylmethyl)-1H-pyrazol-3-yl}-N-methylmethanamine]
- Ki (human 5-HT2A receptor; [2]): 0.52 nM
- Ki [1]: 1.5 nM

Structure (SMILES): CNCc1cc(OCc2ccc(F)cc2C)n(CC2CCCCC2)n1 [Example 31, 1-{1-(cyclohexylmethyl)-5-[(4-fluoro-2-methylbenzyl)oxy]-1H-pyrazol-3-yl}-N-methylmethanamine]
- Ki (human 5-HT2A receptor): 1.4 nM

Structure (SMILES): CNCc1cc(OCc2cc(F)ccc2F)n(CC2CCCCC2)n1 [Example 33, 1-{1-(cyclohexylmethyl)-5-[(2,5-difluorobenzyl)oxy]-1H-pyrazol-3-yl}-N-methylmethanamine]
- Ki (human 5-HT2A receptor; [2]): 0.5 nM

Structure (SMILES): CNCc1cc(OCc2cc(F)ccc2Cl)n(CC2CCCCC2)n1 [Example 37, 1-{5-[(2-chloro-5-fluorobenzyl)oxy]-1-(cyclohexylmethyl)-1H-pyrazol-3-yl}-N-methylmethanamine]
- Ki (human 5-HT2A receptor): 2.1 nM
- Ki [1]: 0.89 nM

Structure (SMILES): CNCc1cc(OCc2cc(Cl)ccc2Cl)n(CC2CCCCC2)n1 [Example 38, 1-{1-(cyclohexylmethyl)-5-[(2,5-dichlorobenzyl)oxy]-1H-pyrazol-3-yl}-N-methylmethanamine]
- Ki (human 5-HT2A receptor; [2]): 3.2 nM
- Ki [1]: 2.4 nM

Structure (SMILES): CNCc1cc(OCc2ccc(F)cc2C)n(CC2CCCCO2)n1 (stereo not shown) [Example 108, 1-{5-[(4-fluoro-2-methylbenzyl)oxy]-1-(tetrahydro-2H-pyran-2-ylmethyl)-1H-pyrazolo-3-yl}-N-methylmethanamine]
- Ki (human 5-HT2A receptor; [2]): 4.8 nM
- Ki [1]: 1.9 nM

Structure (SMILES): CNCc1cc(OCc2ccccc2)n(CC2CC3CCC2C3)n1 (stereo not shown) [Example 115, 1-[5-(benzyloxy)-1-(bicyclo[2.2.1]hept-2-ylmethyl)-1H-pyrazol-3-yl]-N-methylmethanamine]
- Ki (human 5-HT2A receptor; [2]): 1 nM

Structure (SMILES): CNCc1cc(OCc2cc(F)ccc2F)n(CC2CC3CCC2C3)n1 (stereo not shown) [Example 117, 1-{1-(bicyclo[2.2.1]hept-2-ylmethyl)-5-[(2,5-difluorobenzyl)oxy]-1H-pyrazol-3-yl}-N-methylmethanamine]
- Ki (human 5-HT2A receptor): 0.76 nM
- Ki [1]: 0.5 nM

Structure (SMILES): CNCc1cc(OCc2cc(Cl)ccc2F)n(CC2CC3CCC2C3)n1 (stereo not shown) [Example 118, 1-{1-(bicyclo[2.2.1]hept-2-ylmethyl)-5-[(5-chloro-2-fluorobenzyl)oxy]-1H-pyrazol-3-yl}-N-methylmethanamine]
- Ki (human 5-HT2A receptor; [2]): 0.73 nM
- Ki [1]: 2 nM

Structure (SMILES): CNCc1cc(OCc2cc(F)ccc2F)n(CC2CCC(F)(F)CC2)n1 [Example 124, 1-{5-[(2,5-difluorobenzyl)oxy]-1-[(4,4-difluorocyclohexyl)methyl]-1H-pyrazol-3-yl}-N-methylmethanamine]
- Ki (human 5-HT2A receptor; [2]): 1.7 nM
- Ki [1]: 0.71 nM

Structure (SMILES): CNCc1cc(OCc2cc(F)ccc2F)n(CC2(F)CCCCC2)n1 [Example 127, 1-{5-[(2,5-difluorobenzyl)oxy]-1-[(1-fluorocyclohexyl)methyl]-1H-pyrazol-3-yl}-N-methylmethanamine]
- Ki [1]: 1.3 nM

Structure (SMILES): CNCc1cc(OCc2ccc(F)cc2)n(CC2CCCC2)n1 [Example 137, 1-{1-(cyclopentylmethyl)-5-[(4-fluorobenzyl)oxy]-1H-pyrazol-3-yl}-N-methylmethanamine]
- Ki (human 5-HT2A receptor; [2]): 1.3 nM

Structure (SMILES): CNCc1cc(OCc2ccccc2Cl)n(CC2CCCC2)n1 [Example 138, 1-{5-[(2-chlorobenzyl)oxy]-1-(cyclopentylmethyl)-1H-pyrazol-3-yl}-N-methylmethanamine]
- Ki (human 5-HT2A receptor; [2]): 11 nM
- Ki [1]: 1.8 nM

Structure (SMILES): CNCc1cc(OCc2ccc(F)cc2F)n(CC2CCCC2)n1 [Example 144, 1-{1-(cyclopentylmethyl)-5-[(2,4-difluorobenzyl)oxy]-1H-pyrazol-3-yl}-N-methylmethanamine]
- Ki (human 5-HT2A receptor): 0.2 nM

Structure (SMILES): CNCc1cc(OCc2cc(Cl)ccc2F)n(CC2CCCC2)n1 [Example 148, 1-{5-[(5-chloro-2-fluorobenzyl)oxy]-1-(cyclopentylmethyl)-1H-pyrazol-3-yl}-N-methylmethanamine]
- Ki (human 5-HT2A receptor): 1.8 nM

Structure (SMILES): CNCc1cc(OCc2ccccc2C#N)n(CC2CCCC2)n1 [Example 162, 2-[({1-(cyclopentylmethyl)-3-[(methylamino)methyl]-1H-pyrazol-5-yl}oxy)methyl]benzonitrile]
- Ki (human 5-HT2A receptor): 2.7 nM
- Ki [1]: 7.8 nM

Structure (SMILES): CNCc1cc(OCc2ccccc2F)n(Cc2ccc(F)cc2)n1 [Example 218, 1-{1-(4-fluorobenzyl)-5-[(2-fluorobenzyl)oxy]-1H-pyrazol-3-yl}-N-methylmethanamine]
- Ki (human 5-HT2A receptor): 1.2 nM

Structure (SMILES): CNCc1cc(OCc2cc(F)ccc2F)n(Cc2ccc(F)cc2)n1 [Example 219, 1-{5-[(2,5-difluorobenzyl)oxy]-1-(4-fluorobenzyl)-1H-pyrazol-3-yl}-N-methylmethanamine]
- Ki (human 5-HT2A receptor; [2]): 1.3 nM

Structure (SMILES): CNCc1cc(OCc2cc(F)ccc2F)n(Cc2ccc(Cl)cc2)n1 [Example 224, 1-{1-(4-chlorobenzyl)-5-[(2,5-difluorobenzyl)oxy]-1H-pyrazol-3-yl}-N-methylmethanamine]
- Ki (human 5-HT2A receptor; [2]): 1.2 nM
- Ki [1]: 1.5 nM

Structure (SMILES): CNCc1cc(OCc2cc(F)ccc2F)n(Cc2ccc(C)cc2)n1 [Example 230, 1-{5-[(2,5-difluorobenzyl)oxy]-1-(4-methylbenzyl)-1H-pyrazol-3-yl}-N-methylmethanamine]
- Ki (human 5-HT2A receptor; [2]): 2.7 nM

Structure (SMILES): CNCc1cc(OCc2cc(Cl)ccc2F)n(CC(C)C)n1 [Example 256, 1-{5-[(5-chloro-2-fluorobenzyl)oxy]-1-(2-methylpropyl)-1H-pyrazol-3-yl}-N-methylmethanamine]
- Ki (human 5-HT2A receptor; [2]): 4.5 nM

Structure (SMILES): CNCc1cc(OCc2cc(Cl)ccc2F)n(CC(C)(C)C)n1 [Example 259, 1-{5-[(5-chloro-2-fluorobenzyl)oxy]-1-(2,2-dimethylpropyl)-1H-pyrazol-3-yl}-N-methylmethanamine]
- Ki (human 5-HT2A receptor; [2]): 7.5 nM

Structure (SMILES): CNCc1cc(OCc2cc(F)ccc2F)n(CCC(C)(C)C)n1 [Example 266, 1-{5-[(2,5-difluorobenzyl)oxy]-1-(3,3-dimethylbutyl)-1H-pyrazol-3-yl}-N-methylmethanamine]
- Ki (human 5-HT2A receptor; [2]): 0.65 nM

Structure (SMILES): CNCc1cc(OCc2cc(F)c(F)cc2F)n(CC2CCCC2)n1 [Example 280, 1-{1-(cyclopentylmethyl)-5-[(2,4,5-trifluorobenzyl)oxy]-1H-pyrazol-3-yl}-N-methylmethanamine]
- Ki (human 5-HT2A receptor; [2]): 1.3 nM

Structure (SMILES): CNCc1cc(OCc2cc(F)c(F)cc2F)n(CCC(C)(C)C)n1 [Example 284, 1-{1-(3,3-dimethylbutyl)-5-[(2,4,5-trifluorobenzyl)oxy]-1H-pyrazol-3-yl}-N-methylmethanamine]
- Ki (human 5-HT2A receptor; [2]): 1.8 nM

Structure (SMILES): CNCc1cc(OCc2cc(F)c(F)cc2F)n(Cc2ccc(C)cc2)n1 [Example 286, N-methyl-1-{1-(4-methylbenzyl)-5-[(2,4,5-trifluorobenzyl)oxy]-1H-pyrazol-3-yl}methanamine]
- Ki (human 5-HT2A receptor; [2]): 2.4 nM

Structure (SMILES): CNCc1cc(OCc2ccccc2)n(C(C)C2CCCC2)n1 (stereo not shown) [Example 288, 1-[5-(benzyloxy)-1-(1-cyclopentylethyl)-1H-pyrazol-3-yl]-N-methylmethanamine]
- Ki (human 5-HT2A receptor): 5.2 nM

Structure (SMILES): CNCc1cc(OCc2cc(Cl)ccc2F)n(C(C)C2CCCC2)n1 (stereo not shown) [Example 291, 1-{5-[(5-chloro-2-fluorobenzyl)oxy]-1-(1-cyclopentylethyl)-1H-pyrazol-3-yl}-N-methylmethanamine]
- Ki (human 5-HT2A receptor; [2]): 2.5 nM
- Ki [1]: 1.2 nM

Structure (SMILES): CNCc1cc(OCc2ccccc2)n(C(C)C2CCCCC2)n1 (stereo not shown) [Example 292, 1-[5-(benzyloxy)-1-(1-cyclohexylethyl)-1H-pyrazol-3-yl]-N-methylmethanamine]
- Ki (human 5-HT2A receptor; [2]): 1.2 nM
- Ki [1]: 0.96 nM

Structure (SMILES): CNCc1cc(OCc2ccccc2F)n(C(C)C2CCCCC2)n1 (stereo not shown) [Example 293, 1-{1-(1-cyclohexylethyl)-5-[(2-fluorobenzyl)oxy]-1H-pyrazol-3-yl}-N-methylmethanamine]
- Ki (human 5-HT2A receptor; [2]): 1.1 nM
- Ki [1]: 0.67 nM

Structure (SMILES): CNCc1cc(OCc2ccc(F)cc2)n(C(C)C2CCCCC2)n1 (stereo not shown) [Example 295, 1-{1-(1-cyclohexylethyl)-5-[(4-fluorobenzyl)oxy]-1H-pyrazol-3-yl}-N-methylmethanamine]
- Ki (human 5-HT2A receptor; [2]): 0.74 nM
- Ki [1]: 0.95 nM

Structure (SMILES): CNC(C)c1cc(OCc2cc(F)ccc2F)n(CCC2CCCC2)n1 (stereo not shown) [Example 315, 1-{1-(2-cyclopentylethyl)-5-[(2,5-difluorobenzyl)oxy]-1H-pyrazol-3-yl}-N-methylethanamine]
- Ki (human 5-HT2A receptor; [2]): 0.6 nM

Structure (SMILES): CNCc1cc(OCc2ccccc2)n(C(CF)C2CCCCC2)n1 (stereo not shown) [Example 330, 1-[5-(benzyloxy)-1-(1-cyclohexyl-2-fluoroethyl)-1H-pyrazol-3-yl]-N-methylmethanamine]
- Ki (human 5-HT2A receptor): 2.8 nM

Structure (SMILES): CNCc1cc(OCc2cccc(Cl)c2)n(CC2CCc3ccccc3O2)n1 (stereo not shown) [Example 341, 1-{5-[(3-chlorobenzyl)oxy]-1-(3,4-dihydro-2H-chromen-2-ylmethyl)-1H-pyrazol-3-yl}-N-methylmethanamine]
- Ki (human 5-HT2A receptor): 4.9 nM

Structure (SMILES): Fc1ccc(F)c(COc2cc(CNC3CC3)nn2CC2CCCCC2)c1 [Example 342, N-({1-(cyclohexylmethyl)-5-[(2,5-difluorobenzyl)oxy]-1H-pyrazol-3-yl}methyl)cyclopropanamine]
- Ki (human 5-HT2A receptor; [2]): 4.9 nM

Structure (SMILES): CNCc1cc(OC(F)(F)c2ccccc2)n(CC2CCCCC2)n1 [Example 349, 1-{1-(cyclohexylmethyl)-5-[difluoro(phenyl)methoxy]-1H-pyrazol-3-yl}-N-methylmethanamine]
- Ki (human 5-HT2A receptor): 6 nM

Structure (SMILES): Cl.[2H]C([2H])(Oc1cc(CNC)nn1CC1CCCCC1)c1cc(F)ccc1F [Example 497, 1-[1-(Cyclohexylmethyl)-5-{[(2,5-difluorophenyl) (^2H2)methyl]oxy}-1H-pyrazol-3-yl]-N-methylmethanamine Hydrochloride]
- Ki (human 5-HT2A receptor; [2]): 2.4 nM
